In patent US20230365568A1, “PLK1 POLO BOX DOMAIN INHIBITORS AND METHOD OF TREATING CANCER” (The United States of America,as represented by the …, priority 2020, published 2023):
Like-named read-outs stand apart in the source and are kept apart here. Marks after values point to notes of the source that are not given here.

Assays:
[1] = Stability in human liver microsomes; format: in vitro ADME; conditions: for half-life: read-out: t1/2 Human LM
[2] = Stability in rat liver microsomes (Table 10); format: in vitro ADME; conditions: for half-life: read-out: t1/2 Rat LM
[3] = Stability in mouse cytosol; format: in vitro ADME; conditions: for half-life: read-out: t1/2 Mouse cytosol
Stability in rat cytosol = format: in vitro ADME; conditions: for half-life: read-out: t1/2 Rat cytosol
[4] = Stability in human cytosol; format: in vitro ADME; conditions: for half-life: read-out: t1/2 Human cytosol
[5] = Stability in mouse liver microsomes; format: in vitro ADME; conditions: for half-life: read-out: t1/2 Mouse LM
HeLa cells = assay: Mitotic arrest and antiproliferation in HeLa cells (DAPI staining, cell counts); format: cell-based; conditions: for induction of mitotic arrest (rounded cells with apoptotic or aberrant chromosome morphologies): 100 μM
Description: HeLa cells were cultured as recommended by the American Type Culture Collection (ATCC). […] Immunostaining was carried out using anti-Plk1 (Santa Cruz Biotechnology, Santa Cruz, CA), anti-Cep63 (MilliporeSigma), anti-CREST (Antibodies Incorp, Davis, CA), and anti-α-tubulin (Sigma, St. Louis, MO) antibodies.
(§1) To quantify fluorescence signal intensities, images were acquired under the same settings and the images obtained after the maximum-intensity projection of z-stacks were analyzed using the Zeiss ZEN v2.1 software (Carl Zeiss Microscopy, LLC). All the quantifications were performed with randomly chosen fields from at least three independent experiments. All values are given as mean±s. D. P values were calculated by unpaired t test from the mean data of each group in Graph Pad Prism (***P<0.001). The statistical details including the definitions and value of n (e.g., number of experimental replicates, cells, etc.) And standard deviations are provided herein.

[6] = Microsomal metabolic stability, rat liver microsomes (RLM)
[7] = test system: Plk1 localization to centrosomes and kinetochores in HeLa cells; assay: Immunostaining of Plk1 localization and spindle morphology in HeLa cells; format: cell-based; conditions: 25 μM, 2 h
Description: HeLa cells were cultured as recommended by the American Type Culture Collection (ATCC). Asynchronously growing cells were treated with control DMSO or the indicated concentration of 143. To reveal chromosome morphologies, cells were treated with 4′,6-diamidino-2-phenylindole (DAPI), fixed, and subjected to confocal microscopy. Immunostaining was carried out using anti-Plk1 (Santa Cruz Biotechnology, Santa Cruz, CA), anti-Cep63 (MilliporeSigma), anti-CREST (Antibodies Incorp, Davis, CA), and anti-α-tubulin (Sigma, St. Louis, MO) antibodies. Confocal images were acquired using a Zeiss LSM780 equipped with a plan-apochromat 63× (N.A. 1.4) oil-immersion objective lens, 34-channel GaAsP spectral detector (Carl Zeiss Microscopy, LLC.), and 8-bit, 0.5-μm z-steps.
as §1
To directly examine whether the observed mitotic arrest was the consequence of inhibiting Plk1 PBD function, immunostaining analysis was carried out to determine the ability of intracellular Plk1 to localize to centrosomes and kinetochores, an event that requires PBD-mediated protein-protein interaction (Lee et al., Trends Pharmacol. Sci. 36, 858-877 (2015); and Elia et al., Cell 115, 83-95 (2003)). […] A short treatment time (i.e., 2 h), which was intended to minimize a potential indirect effect of these inhibitors, was sufficient to delocalize greater than 70% of Plk1 signals from centrosomes (marked by anti-Cep63 signals) and 90% of those from kinetochores (marked by anti-CREST signals).

[8] = test system: multiple myeloma-derived L363 cells; assay: MTS cell proliferation assay in L363 cells; format: cell-based; conditions: 48 h treatment, read-out: Cell efficacy, GI50 ± sd
Description: MTS Assay. […] 96™ AQueous One Solution Cell Proliferation Assay (MTS) kit (Promega, WI). Briefly, asynchronously growing L363 cells cultured in a 96-well plate were treated with the indicated compounds for 48 h.

SMILES	half-life [1] [h]	half-life [2] [h]	half-life [3] [h]	half-life (Stability in rat cytosol) [h]	half-life [4] [h]	half-life [5] [h]	induction of mitotic arrest (rounded cells with apoptotic or aberrant chromosome morphologies) (HeLa cells)	t1/2 Human LM [1] [h]	t1/2 Rat LM [2] [h]	t1/2 Mouse cytosol [3] [h]	t1/2 Rat cytosol (Stability in rat cytosol) [h]	t1/2 Human cytosol [4] [h]	t1/2 Mouse LM [5] [h]	t1/2 (min, RLM) ([6]; rat liver microsomes) [min]	Solub. (Aqueous solubility; aqueous solubility) [µg/mL]	also measured
CCCn1c(=O)c2cc(F)ccc2n2c(SC)nnc12 [compound 144, 7-fluoro-1-(methylthio)-4-propyl-[1,2,4]triazolo[4,3-a]quinazolin-5(4H)-one]	0.241	0.439	> 2	> 2	> 2	0.176	induced mitotic arrest but at a somewhat reduced level									
NCCCn1c(=O)c2cc(F)ccc2n2c(=S)[nH]nc12 [compound 68]								>2	1.7728	>2	>2	>2	>2			t1/2 (min, RLM) ([6]; Free base): >30^c >30^d min; t1/2 (min, RLM) ([6]; TFA salt): >30^c >30^d min; Solub. (Aqueous solubility; Free base): 27 µg/mL; Solub. (Aqueous solubility; TFA salt): > 43 µg/mL
CCCn1c(=O)c2cc(F)ccc2n2c(=S)[nH]nc12 [compound 64, 7-fluoro-4-propyl-1-thioxo-2,4-dihydro-[1,2,4]triazolo[4,3-a]quinazolin-5(1H)-one]	> 2	2	> 2	> 2	> 2	> 2	lacked a detectable level of cellular response							>30	>28	PAMPA (PAMPA permeability): 195 ×10⁻⁶ cm/s
C[C@H]1C[C@@H]1n1c(=O)c2cc(F)ccc2n2c(=S)[nH]nc12 [compound 80]								0.8472	>2	>2	>2	>2	1.7515	>30	13.2	PAMPA: 188 ×10⁻⁶ cm/s
CS(=O)(=O)NCCn1c(=O)c2cc(F)ccc2n2c(=S)[nH]nc12 [compound 75]														>30	>53	Plk1 signals delocalized from centrosomes [7]: greater than 70%; Plk1 signals delocalized from kinetochores [7]: > 90%; effect on Plk1 localization [7]: greatly diminished Plk1 signal intensities at both centrosomes and kinetochores; GI50 [8]: 4.1 µM; population of rounded cells with mitotically arrested or apoptotic chromosome morphologies (HeLa cells; 25 μM, 12 h): approximately 60%
